From patent US9458138B1, “Pyrrole compounds as granzyme B inhibitors” (viDA Therapeutics Inc., priority 2014, dated 2016)

Key:
GzmB [1] = target: T1, GzmB (Homo sapiens, UniProt P10144); test: Inhibition of Cell Detachment by GzmB Assay (Example D7); type: cell-based; conditions: 50 uM inhibitor; 100 nM GzmB; HDFa primary human fibroblasts; 7 hours; MTS absorbance 490 nm; read-out: Percent Inhibition of cell detachment at 50 uM
Method: HDFa primary human fibroblasts were plated at 10 k/well in 200 ul, approximately 20 hrs before treatment. The next day, controls and 100 nM GzmB (recombinant, human) plus or minus inhibitor treatments were prepared in serum-free media. GzmB and inhibitor were incubated for 20 minutes at RT before adding to cells. Before addition, media and serum was removed from the cells and the cells were washed with PBS (1×), using pipettes to prevent disturbing the cells. Treatment preparations (100 ul) were added to the wells and incubated for 7 hours in a tissue culture incubator. After 7 hours, media and treatments were removed and the cells were washed with PBS (1×) to removed detached cells, using pipettes only. Phase pictures were taken then the PBS was removed and replaced with 100 uL of serum-free media and 20 uL of MTS and the cells were allowed to incubate for 3 hours in a cell culture incubator. After 3 hours the absorbance was read at 490 nm and a percent inhibition value for the treatments with inhibitors was determined from the control wells.

GzmB [2] = target: T1, GzmB; test: Inhibition of Fibronectin Cleavage by GzmB (Example D8); type: biochemical; conditions: 20 nM granzyme B, Hilyte Fluor 488 labeled Fibronectin, 30° C.; for inhibition at 0.62 µM: 0.62 uM inhibitor, read-out: Percent Inhibition at Inhibitor Concentration 0.62 uM; for inhibition at 5.56 µM: 5.56 uM inhibitor, read-out: Percent Inhibition at Inhibitor Concentration 5.56 uM; for inhibition at 50 µM: 50 uM inhibitor, read-out: Percent Inhibition at Inhibitor Concentration 50 uM
Method: Black, 96 well high-binding assay plates (Griener Bio-one) were treated overnight at 4° C. with 40 uL of 8 ug/mL Hilyte Fluor 488 labeled Fibronectin (Cytoskeleton, Inc). After fibronectin coating, plates were washed 3 times in buffer (20 mM Tris-HCl, pH 7.4, 20 mM NaCl) then once with granzyme B assay buffer (50 mM HEPES, pH 7.5, 0.1% CHAPS). After washing, 50 uL of granzyme B assay buffer was added to each fibronectin-coated well. In a separate non-binding 96 well assay plate 5 uL of 20× inhibitor serial dilution stocks were added to 45 uL of 2.22× GzmB mix to establish inhibition (enzyme/inhibitor mixes were all prepared in granzyme B assay buffer and were incubated first at room temperature for 20 minutes, then at 30° C. for another 10 minutes). After incubation, 50 uL of this 2× enzyme/inhibitor mix was added to the corresponding coated well to initiate fibronectin cleavage (20 nM final granzyme B concentration, 8-point inhibitor dilution series starting at 50 uM). The assay was conducted at 30° C. in the TECAN plate reader (TECAN INFINITE® M1000 Pro), which was programmed to monitor the kinetic fluorescence polarization signal (filter set Ex/Em 470 nm/527 nm) with readings taken every minute, for 1 hour. Proteolytic activity was evaluated as the rate of fluorescence enhancement in the parallel emission over the linear range of the reaction. % Inhibition values were calculated from assay controls and the resulting date is shown in Table 7.

T1 sequence (P10144 21-247): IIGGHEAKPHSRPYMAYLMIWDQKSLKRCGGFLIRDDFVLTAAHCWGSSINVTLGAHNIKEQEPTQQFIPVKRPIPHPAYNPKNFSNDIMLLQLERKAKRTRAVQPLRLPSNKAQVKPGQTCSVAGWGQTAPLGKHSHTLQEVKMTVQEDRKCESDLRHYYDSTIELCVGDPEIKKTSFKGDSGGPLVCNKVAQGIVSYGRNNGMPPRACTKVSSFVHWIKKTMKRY

| inhibition at 50 µM (GzmB [1]) [%] | inhibition at 0.62 µM (GzmB [2]) [%] | inhibition at 5.56 µM (GzmB [2]) [%] | inhibition at 50 µM (GzmB [2]) [%] | SMILES |
| --- | --- | --- | --- | --- |
| 91 | – | – | – | CC(C)C(NC(=O)CCC(=O)O)c1ccc(C(=O)NCC(=O)NCc2nn[nH]n2)[nH]1 (racemic) [Compound C3, 3-{[2-methyl-1-[5-({[(2H-1,2,3,4-tetrazol-5-ylmethyl)carbamoyl]methyl}carbamoyl)-1H-pyrrol-2-yl]propyl]carbamoyl}propanoic acid] |
| – | 28 | 56 | 78 | CC(C)C(NC(=O)CCC(=O)O)c1ccc(C(=O)N2CCC[C@H]2C(=O)NCc2nn[nH]n2)[nH]1 (mixture of isomers) [Compound C4, 3-{[2-methyl-1-{5-[(2S)-2-[(2H-1,2,3,4-tetrazol-5-ylmethyl)carbamoyl]pyrrolidine-1-carbonyl]-1H-pyrrol-2-yl}propyl]carbamoyl}propanoic acid] |
| – | 63 | 83 | 94 | O=C(O)CCC(=O)NC(c1ccc(C(=O)N2C[C@@H](O)C[C@H]2C(=O)NCc2nn[nH]n2)[nH]1)C1CCCC1 (stereo partly drawn) [Compound C8, 3-{[cyclopentyl({5-[(2S,4S)-4-hydroxy-2-[(2H-1,2,3,4-tetrazol-5-ylmethyl)carbamoyl]pyrrolidine-1-carbonyl]-1H-pyrrol-2-yl})methyl]carbamoyl}propanoic acid] |
